Experimental data taken from patent EP0130882A2, “Bicyclo(3.2.1)octane carboxylic-acid derivatives, processes for their preparation and their therapeutical use” (SANOFI, priority 1983, dated 1985).
Where two headings read alike, the source gives them in different places.

Tests used:
[1] = test system: Crise à l'acide B - mercaptopropionique; test: B-mercaptopropionic acid seizure test; format: in vivo, souris; details: oral, 15 min before acide B-mercaptopropionique 60 mg/Kg I.P., mouse; read-out: DE 50 (the source's name)
From the text: (§1) L'invention a donc encore pour objet un médicament ayant en particulier des activités anticonvulsivante et antianoxique caractérisé en ce qu'il contient, à titre de principe actif un dérivé de formule I. Tous les essais Toxico-pharmacologiques ont été pratiqués sur des souris mâles de souche CHARLES RIVER (CD1).
L'acide B-mercaptopropionique est un inhibiteur de la glutamate-décarboxylase (GAD), enzyme qui catalyse la transformation du glutamate en acide Y-aminobutyrique (GABA). Son action se traduit donc par un abaissemement du taux de ŒBA et la survenue de crises généralisées tonico-cloniques 3 à 4 minutes après son administration. L'acide B-mercaptopropionique a été administré aux souris par voie I.P. à la dose de 60 mg/Kg. Le traitement pour les composés à tester est administré par la voie orale 15 minutes avant l'injection d'acide B-mercaptopionique. Les DE 50 exprimées en mg/Kg, ainsi déterminées sont : • Composé N° 2 = 90 • 5 = 30 • 6 = 60 • 7 = 120 • 8 = 70

[2] = test system: Crise à la bicuculline; test: Bicuculline seizure test; format: in vivo, souris; details: oral, 30 min before bicuculline 0.65 mg/Kg i.v., observed for 30 min, mouse; read-out: DE 50 (convulsions toniques)
From the text: as §1
Ce test a été effectué selon la méthode de Pérez de la Mora et Tapia (Biochem. Pharmacol., 1973,19,303-310). Les traitements ont été administrés par voie orale à des lots de 10 souris, 30 minutes avant l'injection de bicuculline (0.65 mg/Kg) par la voie intraveineuse. L'apparition des convulsions toniques a été notée pendant les 30 mn qui ont suivi l'injection de bicuculline. Les DE 50 en mg/Kg ainsi déterminées sont : • Composé N° 5 = 68 • 6 = 61 • 7 = 145 • 8 = 75

[3] = in vivo; set-up: species or system souris; details: mouse, po
From the text: as §1
Dans le cadre de cette étude, on a déterminé l'activité sédative des composés de l'invention; on a utilisé dans ce but, le test du cylindre tournant (Boissier, J.R., Therapie 1958, 13,1074).
Ce test est destiné à apprécier l'aptitude des animaux à coordonner leurs mouvements. Il met en oeuvre un cylindre de bois, d'un diamètre de 4,8 cm, qui-tourne à la vitesse de 4 tours/mn. Le test est pratiqué sur des souris d'un poids 22 g environ. Les produits sont administrés par voie orale à différents lots de 10 animaux. Ces derniers sont placés sur l'appareil 15 minutes après l'administration du produit. On note le pourcentage de souris qui perdent le réflexe d'équilibration, c'est-à-dire qui deviennent incapables de se maintenir sur le cycindre pendant une durée de 2 minutes.
Par la méthode de Finney, on calcule une dose neuroto- xique 50 (DNT 50) qui exprime donc le niveau moyen -des premières atteintes neuromusculaires sous l'influence d'un produit étudié.

[4] = test system: Crise pentétrazolique; test: Pentetrazole seizure test (protection against tonic seizures); format: in vivo, souris; details: read-out: DE 50 (protection contre les crises toniques)
From the text: On note dans chaque lot le pourcentage de protection contre les crises toniques.

[5] = test system: Crise électrique supramaximale; test: Supramaximal electroshock seizure test; format: in vivo, souris; details: po, 0.5 h; per os, 30 min before supramaximal electroshock (50 HZ, 60 volts, 0,4 sec.), mouse; read-out: DE 50 (hyperextension tonique)
From the text: as §1
Cette expérimentation a été effectuée selon le test de Swinyard et al., (Am.J.Pharmacol, Ther., 1952,168-175). Les traitements ont été administrés per os à des lots de 10 souris 30 mn, avant l'électrochoc supramaximal (courant alternatif de 50 HZ, 60 volts pendant 0,4 sec.) délivré par l'intermédiaire d'électrodes intra-auriculaires. On note le nombre d'animaux dans chaque lot qui ne présentent pas d'hy- perextension tonique lors de la stimulation électrique trans- cranienne, et on détermine la DE 50 exprimée en mg/Kg.

[6] = test system: anoxie par confinement; test: Anoxia by confinement (antianoxic activity, survival time); format: in vivo, souris; details: I.P. immediately before placing in closed 200 ml vessel, mouse; dose not given
From the text: as §1
Cette activité a été étudiée par la méthode de l'anoxie par confinement.
Des souris (20 par lot) sont placées dans une enceinte (bocal en verre) normobare, normoxique, hermétiquement close de 200 ml. Tous les traitements sont administrés par voie I.P. immédiatement avant l'introduction dans l'enceinte. L'animal est considéré comme mort au moment de l'arrêt respiratoire.
Les bocaux choisis étant très petits, l'activité motrice des animaux est extrêmement faible, ce qui élimine en principe la possibilité d'un résultat positif par effet sédatif. On note dans chaque lot le temps de survie des animaux.

[7] = Acute oral toxicity (DL 50, Finney method); set-up: species or system souris; details: in vivo, mouse
Experimental: as §1
Ainsi, la DL 50 déterminée par voie orale chez la souris par la méthode Finney(Probit analysis, University Press Cambridge.,. 1971) est de 3000 mg/Kg pour le dérivé N° 5'et supérieure à 1000 mg/Kg pour tous les composés de l'invention.

[8] = oral, 15 min before pentétrazole 125 mg/Kg i.p., mouse

SMILES: CCC1(C(N)=O)CC2CCC(C2)C1 (stereo not shown) [dérivé N° 6, Ethyl-3 bicyclo (3.2.1.) octane carboxamide-3]
- ED50 [1]: 60 mg/kg
- ED50 [2]: 61 mg/kg
- TD50 at 0.25 h [3]: 400 mg/kg
- ED50 [4, 8]: 75 mg/kg
- ED50 [5]: 210 mg/kg

SMILES: CNC(=O)C1(C)CC2CCC(C2)C1 (stereo not shown) [dérivé N° 8, N-Méthyl mêthyl-3 bicyclo (3.2.1.) octane carboxamide-3]
- ED50 [1]: 70 mg/kg
- ED50 [2]: 75 mg/kg
- TD50 at 0.25 h [3]: 500 mg/kg
- ED50 [4, 8]: 115 mg/kg
- ED50 [5]: 310 mg/kg

SMILES: CC(C)C1(C(N)=O)CC2CCC(C2)C1 (stereo not shown) [dérivé N° 7, Isopropyl-3 bicyclo (3.2.1.) octane carboxamide -3]
- ED50 [1]: 120 mg/kg
- ED50 [2]: 145 mg/kg
- TD50 at 0.25 h [3]: 230 mg/kg
- ED50 [4, 8]: 120 mg/kg
- ED50 [5]: 260 mg/kg

SMILES: CC1(C(=O)O)CC2CCC(C2)C1 (stereo not shown) [dérivé N° 2, Méthyl-3 bicyclo (3.2.1.) octane carboxylate -3 de sodium]
- temps de survie augmenté [6]: 15 p 100
- ED50 [1]: 90 mg/kg
- TD50 at 0.25 h [3]: 600 mg/kg
- ED50 [4, 8]: 90 mg/kg
- ED50 [5]: 400 mg/kg

SMILES: CCCC(CCC)C(=O)O [valproate de sodium, reference compound]
- ED50 ([4]; Mus musculus, po): 200 mg/kg

SMILES: CC1(C(N)=O)CC2CCC(C2)C1 (stereo not shown) [dérivé N° 5, Méthyl-3 bicyclo (3.2.1.) octane carboxamide-3]
- temps de survie augmenté [6]: 25 p 100
- ED50 [1]: 30 mg/kg
- ED50 [2]: 68 mg/kg
- TD50 at 0.25 h [3]: 365 mg/kg
- LD50 [7]: 3000 mg/kg
- ED50 [4, 8]: 53 mg/kg
- ED50 [5]: 210 mg/kg
